Results on 13 compounds are retold here after article PMC2119004 (The Journal of Experimental Medicine, 1991).

Assay [1] has as its system Bb-6 and Bd-l.4 T cell hybridomas. The experiment in a line: Stimulation of T cell hybridomas in the presence of live APC. In kind it is cell-based, mouse. The following applies: Fig. 2; for stimulation of T cells in the presence of live APC (in words): live TH2.2, serum-containing media, 24 h, HT-2 lymphokine assay.
For assay [2] the test system is unchanged. Kind of assay: Stimulation of T cell hybridomas by fixed APC. In kind it is cell-based, mouse. To be noted: for requirement of DTT for presentation by fixed APC (in words): Fig. 4, fixed TH2.2, 18 h at 37°C, 0.15 M citrate/phosphate, pH 5 (A(1-14) forms) or pH 6 (sulfonated A chain), ± 2 mM DTT.
Assay [3] concerns the target T1, I-Ad (Mus musculus, UniProt P01921+P04228).
T1 sequence (P01921 whole entry, looked up): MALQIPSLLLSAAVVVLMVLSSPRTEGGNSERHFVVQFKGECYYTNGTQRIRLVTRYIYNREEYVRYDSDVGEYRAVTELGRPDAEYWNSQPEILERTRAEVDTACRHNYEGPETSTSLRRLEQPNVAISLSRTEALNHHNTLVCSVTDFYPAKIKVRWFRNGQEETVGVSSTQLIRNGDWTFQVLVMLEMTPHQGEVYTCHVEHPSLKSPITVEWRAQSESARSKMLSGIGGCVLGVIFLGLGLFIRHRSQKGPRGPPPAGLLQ
T1 sequence (P04228 whole entry, looked up): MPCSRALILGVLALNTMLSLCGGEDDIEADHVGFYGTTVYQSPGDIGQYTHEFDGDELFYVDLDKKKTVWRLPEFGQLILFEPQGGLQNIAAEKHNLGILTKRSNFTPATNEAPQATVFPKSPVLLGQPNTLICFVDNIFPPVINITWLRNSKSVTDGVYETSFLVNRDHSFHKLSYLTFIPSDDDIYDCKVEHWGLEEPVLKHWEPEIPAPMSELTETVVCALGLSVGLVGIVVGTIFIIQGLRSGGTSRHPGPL
Kind of assay: Binding of biotinylated insulin to purified I-Ad. The following applies: preliminary, data not shown; absence of reduction.

Assay [4] has as its system insulin-immune or A(1-14)-immune H-2d and H-2b lymph node lymphocytes. Kind of assay: Lymph node proliferation assay. In kind it is cell-based, mouse. To be noted: Fig. 6a,b; INS-primed BALB/c or C57BL/10 (H-2d, H-2b); 4 d, [3H]thymidine.
In assay [5] the target is I-Ad (Mus musculus, UniProt P01921+P04228). The experiment in a line: Inhibition of biotin-Myo. To be noted: Fig. 7a; 1 mM DTT, 48 h. In kind it is binding.
The next assay concerns apamin-specific T cells. The following applies: live APC; reduced and alkylated apamin; cited from earlier work.
For assay [6], the system named is Bd-l.4 T cell hybridoma (I-Ad-restricted). The following applies: cited from earlier work.
For assay [7], the system named is Bb-6 T cell hybridoma (I-Ab-restricted). The following applies: cited from earlier work.
For assay [8], the target named is T2, I-Ed (Mus musculus, UniProt P01904+P01915). The experiment in a line: Inhibition of biotin-HEL. To be noted: Fig. 8b; 2 µM biotin-HEL(104-120). In kind it is binding.
T2 sequence (P01904 whole entry, looked up): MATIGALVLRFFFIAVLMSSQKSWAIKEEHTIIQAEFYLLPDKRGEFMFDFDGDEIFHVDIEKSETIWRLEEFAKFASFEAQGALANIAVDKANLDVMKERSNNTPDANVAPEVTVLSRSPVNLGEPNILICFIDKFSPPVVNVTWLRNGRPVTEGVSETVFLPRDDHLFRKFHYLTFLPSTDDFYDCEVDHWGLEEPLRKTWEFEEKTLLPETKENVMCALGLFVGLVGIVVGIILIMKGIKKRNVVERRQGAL
T2 sequence (P01915 whole entry, looked up): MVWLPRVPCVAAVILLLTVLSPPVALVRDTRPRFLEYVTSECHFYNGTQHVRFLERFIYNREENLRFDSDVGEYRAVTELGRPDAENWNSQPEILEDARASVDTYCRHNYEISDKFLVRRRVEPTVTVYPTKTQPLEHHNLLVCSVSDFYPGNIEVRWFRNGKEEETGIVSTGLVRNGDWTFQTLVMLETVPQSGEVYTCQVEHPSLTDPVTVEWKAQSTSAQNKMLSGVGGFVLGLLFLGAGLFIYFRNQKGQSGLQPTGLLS
For assay [9], the system named is I-Ab-restricted beef insulin-reactive T cell clones. The following applies: large panel of I-Ab-restricted beef insulin-reactive T cell clones; cited from earlier work.
Assay [10] concerns the target T2, I-Ed. The experiment in a line: Binding of alkylated HEL. The following applies: data not shown.

Ends that are not written are not given here.

Take “rcamlNS: reduced and carboxyamidomethylated beef insulin”: the “stimulation of T cells in the presence of live APC (in words)” value (“stimulation of T cells” below) in [1] was “do not stimulate these T cells”.
On to “air oxidized A(1-14): air-oxidized form of A(1-14) (GIVEQCCASVCSLY; disulfide (positions not given here); also: air-oxidized, interchain disulfides; UniProt P01317 85-98, looked up, fragment)”, for which, in [2], the “requirement of DTT for presentation by fixed APC (in words)” value is “disulfide reduction was required for presentation”.
On to “INS: Beef insulin purchased from Elanco Products Co.”, for which the “molar excess of DTT to insulin disulfides at optimal response” value in [2] (Fig. 1b, fixed TH2.2, 33 µM INS) was around 10 fold. The “DTT concentration for optimal T cell responses” value in assay [2] (Fig. 1b, fixed TH2.2, 18 h at 37°C in PBS, 33 µM INS) lay in the range of 0.1 to 1 mM. In addition, in [2] (fixed TH2.2, overnight, 2 mM DTT), the “activation of T cells by fixed APC exposed to antigen and DTT (in words)” value is “able to activate Bb-6 and Bd-l.4 T cells”.
Take “biotinylated insulin: biotinylated insulin”: the “binding of biotinylated insulin to I-Ad without reduction (in words)” value in the assay with I-Ad [3] is reported as “can bind to I-Ad”.
Turning to “FVNQHLCGSHLVEALYLVCG- ERGFFYTPKA [B(1-30)]”, the “proliferation of beef insulin-immune lymphocytes (in words)” value in assay [4] is “but not to B chain”.
As to `O[C@@H](CS)[C@@H](O)CS` (racemic) [DTT, dithiothreitol], the “inhibition of peptide binding by DTT alone (in words)” value at I-Ad [5] is “did not inhibit peptide binding”.
As for “oxlNS: Performic acid-oxidized beef insulin”, the “stimulation of T cells” value in assay [1] is “do not stimulate these T cells”.
apamin: in the assay on apamin-specific T cells, the “T cells failing to recognize apamin after reduction and alkylation” value is reported as 3/16.
On to pork insulin: pork insulin, for which, in [6], the “recognition by Bd-l.4 (in words)” value is listed as “partiallycrossreactivewith pork insulin”. In assay [7], the “recognition by Bb-6 (in words)” value was “but not pork, insulin”.
On to GIVEQCCASVCSLY [A(1-14)], for which the “inhibition of biotin-HEL(104-120) binding to I-Ed (in words)” value on I-Ed [8] is reported as “only at relatively high”. For the same compound, the “stimulation of T cells” value in assay [1] was “essentially inactive”. For the same compound, the “potency relative to insulin/DTT with fixed APC (in words)” value in assay [2] (Fig. 3, fixed TH2.2) was “equivalent”.
As to “Sulfonated A chain: sulfonated A chain of beef insulin purified from sulfonated insulin by reverse-phase HPLC”, the “fold lower concentration of intact insulin giving comparable stimulation” value in assay [1] (live APC, both I-Ab- and I-Ad-restricted T cells) is recorded as 3-10 fold. For the same compound, the “requirement of DTT for presentation by fixed APC (in words)” value in assay [2] was “in the presence, but not the absence, of DTT were capable of stimulating Bd-l.4 and Bb-6”. In [9], the “fraction of T cell clones responding to sulfonated A chain but not performic acid-oxidized insulin” value is above 90%.
With “purified A chain from oxlNS: purified A chain from oxINS insulin”, the “stimulation of T cells” value in assay [1] is recorded as “do not stimulate these T cells”.
Turning to GMNAWVAWRNRC- KGTDVY [HEL(104-120)], the “effect of sulfhydryl alkylation on binding to I-Ed (in words)” value on I-Ed [10] is “does not affect its capacity to bind purified FEd”.
